Reference: patent publication US10131652B2, “Pyrimidinyloxy benzene derivatives as herbicides” (E. I. DU PONT DE NEMOURS AND COMPANY, priority 2014, dated 2018)

Experiments:
Format in all cases: in vivo
[1] = system: galium (catchweed bedstraw, Galium aparine); assay: Test D pre-/postemergence plant response
In short: (§1)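 Ratings were visual, 0 = no effect to 100 = complete control, taken against untreated controls after 13 to 15 days in a greenhouse. Chemicals, formulated in non-phytotoxic surfactant-containing solvent, went onto soil (loam/sand) at planting for preemergence, or onto 1- to 4-leaf plants (2–18 cm) for postemergence.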

[2] = system: winter wheat (Triticum aestivum); assay: Test D pre-/postemergence plant response
In short: as §1

[3] = system: johnsongrass (Sorghum halepense); assay: Test D pre-/postemergence plant response
In short: as §1

[4] = system: ragweed (common ragweed, Ambrosia elatior); assay: Test D pre-/postemergence plant response
In short: as §1

[5] = system: yellow nutsedge (Cyperus esculentus); assay: Test D pre-/postemergence plant response
In short: as §1

[6] = system: oilseed rape (Brassica napus); assay: Test D pre-/postemergence plant response
In short: as §1

corn (Zea mays) = assay: Test B pre-/postemergence plant response
In short: (§2)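 Scoring used a 0–100 scale (100 = complete control) by visual comparison with untreated plants after approximately 10 days in the greenhouse. Compounds, in surfactant-containing non-phytotoxic solvent, were sprayed onto soil at planting or onto 2–10 cm seedlings.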

[7] = system: pigweed (Amaranthus retroflexus); assay: Test B pre-/postemergence plant response
In short: as §2

[8] = system: barnyardgrass (Echinochloa crus-galli); assay: Test B pre-/postemergence plant response
In short: as §2

[9] = system: wheat (Triticum aestivum); assay: Test B pre-/postemergence plant response
In short: as §2

[10] = system: giant foxtail (Setaria faberii); assay: Test B pre-/postemergence plant response
In short: as §2

[11] = system: small-flower umbrella sedge (Cyperus difformis); assay: Test C flooded paddy test plant response; settings: Flood, 250 g ai/ha; scale of 0 to 100 where 0 is no effect and 100 is complete control; 13 to 15 days
In short: (§3)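 Scored visually on a 0–100 scale (100 = complete control) against untreated plants 13 to 15 days after treatment in the greenhouse. Compounds went into paddy water of pots flooded to 3 cm, holding 2-leaf-stage plants.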

[12] = system: barnyardgrass (Echinochloa crus-galli); assay: Test C flooded paddy test plant response; settings: Flood, 250 g ai/ha; scale of 0 to 100 where 0 is no effect and 100 is complete control; 13 to 15 days
In short: as §3

[13] = system: ducksalad (Heteranthera limosa); assay: Test C flooded paddy test plant response; settings: Flood, 250 g ai/ha; scale of 0 to 100 where 0 is no effect and 100 is complete control; 13 to 15 days
In short: as §3

rice (Oryza sativa) = assay: Test C flooded paddy test plant response; settings: Flood, 250 g ai/ha; scale of 0 to 100 where 0 is no effect and 100 is complete control; 13 to 15 days
In short: as §3

[14] = Postemergence, 16 g ai/ha, scale 0 to 100 (0 no effect, 100 complete control)
[15] = Postemergence, 31 g ai/ha, scale 0 to 100 (0 no effect, 100 complete control)
[16] = Postemergence, 62 g ai/ha, scale 0 to 100, 0 no effect, 100 complete control
[17] = Postemergence, 125 g ai/ha, scale 0 to 100, 0 no effect, 100 complete control
[18] = Preemergence, 16 g ai/ha, scale 0 to 100 (0 no effect, 100 complete control)
[19] = Preemergence, 31 g ai/ha, scale 0 to 100 (0 no effect, 100 complete control)
[20] = Preemergence, 62 g ai/ha, scale 0 to 100 (0 no effect, 100 complete control)
[21] = 125 g ai/ha, postemergence, 0 to 100 scale, 0 no effect, 100 complete control
[22] = Postemergence, 500 g ai/ha, 0 to 100 scale (0 no effect, 100 complete control)
[23] = Preemergence, 125 g ai/ha, 0 to 100 scale where 0 is no effect and 100 is complete control
[24] = Preemergence, 500 g ai/ha, 0 to 100 scale where 0 is no effect and 100 is complete control
[25] = Postemergence, 31 g ai/ha, 0 to 100 scale (0 no effect, 100 complete control)
[26] = 31 g ai/ha, Preemergence, 0 to 100 scale where 0 is no effect and 100 is complete control
[27] = Preemergence, 125 g ai/ha, 0 to 100 scale (0 no effect, 100 complete control)

FC(F)(F)c1cc(-c2ccccc2Oc2ncc(Cl)cn2)ncn1 [Compound 54]
80: Plant response rating, Foxtail, Giant [10, 21]
55: Galium plant response rating [1, 15] | Plant response rating, Galium [1, 16]
85: Plant response rating (scale 0 to 100), Galium ([1]; Preemergence, 125 g ai/ha) | Plant response rating, Galium [1, 19] | Plant response rating, Oilseed Rape [6, 19]
0: Wheat plant response rating [2, 14] | Wheat plant response rating [2, 15] | Plant response rating, Wheat [2, 16] | Plant response rating (scale 0 to 100), Wheat ([2]; Preemergence, 125 g ai/ha) | Plant response rating, Wheat [2, 18] | Plant response rating, Wheat [2, 19] | Plant response rating, Wheat [2, 20] | Johnsongrass plant response rating [3, 14] | Johnsongrass plant response rating [3, 15] | Plant response rating, Johnsongrass [3, 18] | Plant response rating, Johnsongrass [3, 19] | Ragweed plant response rating [4, 14] | Ragweed plant response rating [4, 15] | Plant response rating, Nutsedge, Yellow [5, 18] | Plant response rating, Nutsedge, Yellow [5, 19] | Plant response rating, Nutsedge, Yellow [5, 20] | Plant response rating, Corn (corn (Zea mays); [21]) | Plant response rating, Corn (corn (Zea mays); [22]) | Plant response rating, Wheat [9, 21] | Plant response rating, Wheat [9, 22] | Sedge, Umbrella plant response rating [11] | Barnyardgrass plant response rating [12] | Rice plant response rating (rice (Oryza sativa))
100: Plant response rating (scale 0 to 100), Oilseed Rape ([6]; Preemergence, 125 g ai/ha) | Plant response rating, Oilseed Rape [6, 20] | Plant response rating, Pigweed [7, 21] | Plant response rating, Pigweed [7, 22] | Plant response rating, Pigweed [7, 23] | Plant response rating, Pigweed [7, 24] | Plant response rating, Barnyardgrass [8, 22] | Plant response rating, Barnyardgrass [8, 24] | Plant response rating, Foxtail, Giant [10, 22] | Plant response rating, Foxtail, Giant [10, 23] | Plant response rating, Foxtail, Giant [10, 24]
60: Plant response rating, Galium [1, 20] | Plant response rating, Oilseed Rape [6, 17] | Plant response rating, Oilseed Rape [6, 18] | Plant response rating, Barnyardgrass [8, 23] | Ducksalad plant response rating [13]
20: Oilseed Rape plant response rating [6, 15] | Plant response rating, Barnyardgrass [8, 21]
5: Plant response rating, Wheat [2, 17] | Plant response rating, Johnsongrass [3, 16] | Plant response rating, Johnsongrass [3, 17] | Plant response rating, Ragweed [4, 16] | Oilseed Rape plant response rating [6, 14]
40: Plant response rating (scale 0 to 100), Johnsongrass ([3]; Preemergence, 125 g ai/ha) | Plant response rating, Ragweed [4, 19]
10: Plant response rating, Johnsongrass [3, 20] | Plant response rating, Ragweed [4, 18] | Plant response rating, Ragweed [4, 20]
15: Plant response rating (scale 0 to 100), Nutsedge, Yellow ([5]; Preemergence, 125 g ai/ha)
50: Galium plant response rating [1, 14] | Plant response rating, Galium [1, 18] | Plant response rating, Oilseed Rape [6, 16]
35: Plant response rating, Ragweed [4, 17] | Plant response rating (scale 0 to 100), Ragweed ([4]; Preemergence, 125 g ai/ha)
75: Plant response rating, Galium [1, 17]

Cc1cc(-c2ccccc2Oc2ncc(Cl)cn2)on1 [Compound 58]
45: Galium plant response rating [1, 15] | Ragweed plant response rating [4, 15]
70: Plant response rating, Barnyardgrass [8, 21] | Plant response rating, Foxtail, Giant [10, 21]
55: Plant response rating, Galium [1, 17]
20: Plant response rating, Johnsongrass [3, 20] | Ragweed plant response rating [4, 14]
50: Plant response rating (scale 0 to 100), Johnsongrass ([3]; Preemergence, 125 g ai/ha) | Plant response rating, Corn (corn (Zea mays); [22]) | Plant response rating, Wheat [9, 22]
98: Plant response rating, Galium [1, 19] | Plant response rating, Oilseed Rape [6, 19]
75: Plant response rating, Ragweed [4, 20] | Plant response rating, Oilseed Rape [6, 17]
0: Plant response rating, Galium [1, 18] | Wheat plant response rating [2, 14] | Plant response rating (scale 0 to 100), Wheat ([2]; Preemergence, 125 g ai/ha) | Plant response rating, Wheat [2, 18] | Plant response rating, Wheat [2, 19] | Plant response rating, Wheat [2, 20] | Johnsongrass plant response rating [3, 14] | Johnsongrass plant response rating [3, 15] | Plant response rating, Johnsongrass [3, 16] | Nutsedge, Yellow plant response rating [5, 14] | Nutsedge, Yellow plant response rating [5, 15] | Plant response rating, Nutsedge, Yellow [5, 16] | Plant response rating, Nutsedge, Yellow [5, 17] | Plant response rating, Nutsedge, Yellow [5, 18] | Plant response rating, Nutsedge, Yellow [5, 19] | Plant response rating, Nutsedge, Yellow [5, 20] | Plant response rating, Corn (corn (Zea mays); [21]) | Plant response rating, Wheat [9, 21] | Barnyardgrass plant response rating [12] | Rice plant response rating (rice (Oryza sativa))
40: Galium plant response rating [1, 14] | Sedge, Umbrella plant response rating [11]
100: Plant response rating (scale 0 to 100), Galium ([1]; Preemergence, 125 g ai/ha) | Plant response rating, Galium [1, 20] | Plant response rating (scale 0 to 100), Ragweed ([4]; Preemergence, 125 g ai/ha) | Plant response rating, Ragweed [4, 18] | Plant response rating (scale 0 to 100), Oilseed Rape ([6]; Preemergence, 125 g ai/ha) | Plant response rating, Oilseed Rape [6, 20] | Plant response rating, Pigweed [7, 21] | Plant response rating, Pigweed [7, 22] | Plant response rating, Pigweed [7, 23] | Plant response rating, Pigweed [7, 24] | Plant response rating, Barnyardgrass [8, 24] | Plant response rating, Foxtail, Giant [10, 24]
60: Plant response rating, Galium [1, 16] | Plant response rating, Ragweed [4, 17] | Plant response rating, Oilseed Rape [6, 16] | Plant response rating, Oilseed Rape [6, 18] | Plant response rating, Barnyardgrass [8, 23]
80: Ducksalad plant response rating [13]
90: Plant response rating, Barnyardgrass [8, 22] | Plant response rating, Foxtail, Giant [10, 22] | Plant response rating, Foxtail, Giant [10, 23]
65: Plant response rating, Ragweed [4, 16]
15: Plant response rating (scale 0 to 100), Nutsedge, Yellow ([5]; Preemergence, 125 g ai/ha)
35: Plant response rating, Ragweed [4, 19]
5: Wheat plant response rating [2, 15] | Plant response rating, Johnsongrass [3, 17] | Oilseed Rape plant response rating [6, 14]
10: Plant response rating, Wheat [2, 16] | Plant response rating, Wheat [2, 17] | Plant response rating, Johnsongrass [3, 18] | Plant response rating, Johnsongrass [3, 19] | Oilseed Rape plant response rating [6, 15]

FC(Cl)(Cl)c1cc(-c2ccccc2Oc2ncc(Cl)cn2)no1 [Compound 198]
5: Wheat plant response rating [2, 16] | Plant response rating, Wheat [2, 17] | Plant response rating (scale 0 to 100), Johnsongrass ([3]; Postemergence, 16 g ai/ha) | Plant response rating (scale 0 to 100), Nutsedge, Yellow ([5]; Postemergence, 16 g ai/ha) | Nutsedge, Yellow plant response rating [5, 15]
98: Plant response rating, Galium [1, 16] | Plant response rating, Galium [1, 17]
55: Ragweed plant response rating [4, 15] | Ragweed plant response rating [4, 16]
15: Nutsedge, Yellow plant response rating [5, 16]
10: Plant response rating, Nutsedge, Yellow [5, 17] | Plant response rating, Corn (corn (Zea mays); [25]) | Plant response rating, Barnyardgrass [8, 26] | Plant response rating, Barnyardgrass [8, 25] | Plant response rating, Wheat [9, 21]
90: Plant response rating, Oilseed Rape [6, 17] | Plant response rating, Foxtail, Giant [10, 21] | Foxtail, Giant plant response rating [10, 27]
85: Ducksalad plant response rating [13]
20: Johnsongrass plant response rating [3, 15] | Plant response rating, Corn (corn (Zea mays); [21])
30: Plant response rating (scale 0 to 100), Ragweed ([4]; Postemergence, 16 g ai/ha) | Plant response rating (scale 0 to 100), Oilseed Rape ([6]; Postemergence, 16 g ai/ha) | Plant response rating, Pigweed [7, 26] | Plant response rating, Foxtail, Giant [10, 25]
0: Plant response rating (scale 0 to 100), Wheat ([2]; Postemergence, 16 g ai/ha) | Wheat plant response rating [2, 15] | Plant response rating, Wheat [9, 25]
50: Oilseed Rape plant response rating [6, 15] | Plant response rating, Barnyardgrass [8, 21]
40: Barnyardgrass plant response rating [8, 27] | Barnyardgrass plant response rating [12]
35: Plant response rating, Johnsongrass [3, 16] | Plant response rating, Johnsongrass [3, 17]
70: Plant response rating (scale 0 to 100), Galium ([1]; Postemergence, 16 g ai/ha) | Plant response rating, Foxtail, Giant [10, 26]
75: Galium plant response rating [1, 15]
100: Plant response rating, Pigweed [7, 21] | Plant response rating, Pigweed [7, 25] | Pigweed plant response rating [7, 27] | Sedge, Umbrella plant response rating [11]
60: Plant response rating, Ragweed [4, 17] | Oilseed Rape plant response rating [6, 16]
25: Rice plant response rating (rice (Oryza sativa))
